Data from patent US20110028447A1, “INDAZOLE DERIVATIVES” (Pfizer Inc., priority 2008, published 2011).
Read-outs that look alike come from different tables or passages of the source.

What was measured:
human CB1 receptor [1] = target: T1, human CB1 receptor (Homo sapiens, UniProt P21554); assay: [35S] GTPγS binding on membranes of CHO cells expressing the human CB1 receptor (agonism); format: biochemical; set-up: expressed in transfected cells; membrane preparation
Summary of the method: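 Membranes from human CB1-expressing CHO cells (5 μg/well) incubated with test compound and [35S]GTPγS in 50 mM Tris pH 7.4, 100 mM NaCl, 3 mM MgCl2, 0.2 mM EGTA, 0.04% BSA for 45 min at 37 °C. Bound label collected by filtration, scintillation counted; EC50 from curve fits.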

human CB1 receptor [2] = target: T1, human CB1 receptor; assay: Human CB1 receptor binding, [3H] CP-55,940 displacement on HEK cell membranes; set-up: expressed in transfected cells; host or cells: HEK cells, doxycycline-induced; membrane preparation
Summary of the method: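 Radioligand displacement: [3H] CP-55,940 at […] final, 1 μg membrane protein per well from HEK cells with tetracycline-inducible human CB1, 60 min at room temperature, pH 7.4 Tris/NaCl/MgCl2/EGTA/BSA buffer. 50 μM WIN-55,212-2 set nonspecific binding; bound label filtered, counted, and fitted for EC50 and Ki values.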

[3] = human CB1, CHO cell membranes, read-out: GTPγS EC50
[4] = GTPγS EC50, human CB1, CHO cell membranes

T1 sequence (P21554 whole entry): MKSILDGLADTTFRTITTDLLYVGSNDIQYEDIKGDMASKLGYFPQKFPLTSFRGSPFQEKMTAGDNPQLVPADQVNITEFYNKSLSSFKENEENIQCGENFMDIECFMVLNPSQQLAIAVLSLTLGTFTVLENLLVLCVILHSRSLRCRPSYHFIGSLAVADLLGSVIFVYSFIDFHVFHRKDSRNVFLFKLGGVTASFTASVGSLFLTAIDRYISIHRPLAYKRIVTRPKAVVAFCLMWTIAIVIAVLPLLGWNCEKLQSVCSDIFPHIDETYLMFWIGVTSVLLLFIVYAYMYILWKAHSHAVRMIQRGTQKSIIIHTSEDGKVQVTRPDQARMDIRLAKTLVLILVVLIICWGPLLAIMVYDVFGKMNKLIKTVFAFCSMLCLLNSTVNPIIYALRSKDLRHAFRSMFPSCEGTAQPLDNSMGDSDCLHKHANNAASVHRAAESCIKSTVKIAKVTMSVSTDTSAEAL

SMILES	EC50 (human CB1 receptor [1]; [3])	Ki (human CB1 receptor [2]; read-out: CB1 Ki)	EC50 (human CB1 receptor [1]; [4])	Ki (human CB1 receptor [2]; CB1 Ki)
CC(C)(C)[C@H](NC(=O)c1nn(Cc2ccc(F)cc2)c2c(F)c(F)ccc12)C(=O)NCc1nnc(C(N)=O)o1 [Example 328]	1.7 nM	0.71 nM		
Cc1nnc(CNC(=O)[C@@H](NC(=O)c2nn(Cc3ccc(F)cc3)c3c(F)c(F)ccc23)C(C)(C)C)o1 [Example 329]			8 nM	2.93 nM
CC(C)(C)[C@H](NC(=O)c1nn(Cc2ccc(F)cc2)c2ccccc12)C(=O)N1CC(F)(F)C1 [Example 330]			0.41 nM	0.2 nM
CC(C)(C)[C@H](NC(=O)c1nn(Cc2ccc(F)cc2)c2ccccc12)C(=O)N1CCC(F)(F)C1 [Example 331]			9.9 nM	2.2 nM
CC(C)(C)[C@H](NC(=O)c1nn(Cc2ccc(F)cc2)c2ccccc12)C(=O)N1CCC(F)(F)CC1 [Example 332]			27.3 nM	15 nM
CC(C)(C)[C@H](NC(=O)c1nn(Cc2ccc(F)cc2)c2ccccc12)C(=O)N1CCCC(F)(F)C1 [Example 333]			3.75 nM	1.49 nM
CC(C)(C)[C@H](NC(=O)c1nn(Cc2ccc(F)cc2)c2ccccc12)C(=O)N1CCC(F)C1 (stereo partly shown) [Example 334]			9.41 nM	1.72 nM
CC(C)(C)[C@H](NC(=O)c1nn(Cc2ccc(F)cc2)c2ccccc12)C(=O)N1CCC(C#N)CC1 [Example 335]			14.9 nM	3.21 nM
CC(C)(C)[C@H](NC(=O)c1nn(Cc2ccc(F)cc2)c2ccccc12)C(=O)N1CC(F)C1 [Example 336]			0.52 nM	0.11 nM
CC(C)(C)[C@H](NC(=O)c1nn(Cc2ccc(F)cc2)c2ccccc12)C(=O)N1CCC(F)(CO)CC1 [Example 337]	21.1 nM	3.48 nM		
CC(C)(O)C1CCN(C(=O)[C@@H](NC(=O)c2nn(Cc3ccc(F)cc3)c3ccccc23)C(C)(C)C)CC1 [Example 338]	24.9 nM	3.43 nM		
CC(C)(C)[C@H](NC(=O)c1nn(Cc2ccc(F)cc2)c2ccccc12)C(=O)NC1CCCOC1 (stereo partly shown) [Example 339]			21.6 nM	5.36 nM
CC(C)(C)[C@H](NC(=O)c1nn(Cc2ccc(F)cc2)c2ccccc12)C(=O)N1CCC(F)CC1 [Example 341]			13.9 nM	3.74 nM
CC(C)(C)[C@H](NC(=O)c1nn(Cc2ccc(F)cc2)c2ccccc12)C(=O)N1CC[C@H]1C(N)=O [Example 344]			60.2 nM	10.1 nM
CC(C)(C)[C@H](NC(=O)c1nn(Cc2ccc(F)cc2)c2ccccc12)C(=O)N1CC(CNS(=O)(=O)C2CC2)C1 [Example 345]	1.69 nM	0.61 nM		
CC(C)(C)[C@H](NC(=O)c1nn(Cc2ccc(F)cc2)c2ccccc12)C(=O)N1CC(CNC(N)=O)C1 [Example 346]	12.1 nM	5.14 nM		
CC(C)(C)[C@H](NC(=O)c1nn(Cc2ccc(F)cc2)c2c(F)cccc12)C(=O)NCCS(N)(=O)=O [Example 348]			19.7 nM	7.83 nM
CC(C)(C)[C@H](NC(=O)c1nn(Cc2ccc(C#N)cc2)c2c(F)cccc12)C(=O)N1CC(C(N)=O)C1 [Example 352]			49.5 nM	4.14 nM
CC(C)(C)[C@H](NC(=O)c1nn(Cc2ccc(C#N)cc2)c2ccccc12)C(=O)N[C@H]1C[C@H](O)C1 [Example 354]			> 500 nM	11.7 nM
CC(C)(C)[C@H](NC(=O)c1nn(Cc2ccc(F)cc2)c2ccccc12)C(=O)NCCS(=O)(=O)N1CCOCC1 [Example 357]	48.6 nM	2.93 nM		
CC(C)(C)[C@H](NC(=O)c1nn(Cc2ccc(C#N)cc2F)c2c(F)c(F)ccc12)C(N)=O [Example 358]			7.46 nM	4.89 nM
CC(C)(C)[C@H](NC(=O)c1nn(Cc2ccc(C#N)cc2F)c2c(F)c(F)ccc12)C(=O)NCc1nnc(C(N)=O)o1 [Example 365]	34.8 nM	11.9 nM		
CC(C)(C)[C@H](NC(=O)c1nn(Cc2ccc(C#N)cc2F)c2c(F)cccc12)C(N)=O [Example 368]			4.55 nM	2 nM
CC(C)(C)[C@H](NC(=O)c1nn(Cc2ccc(C#N)cc2F)c2c(F)cccc12)C(=O)NC1CC1 [Example 373]			11.6 nM	14.6 nM

SMILES	EC50 (human CB1 receptor [1]; [3])	Ki (human CB1 receptor [2]; read-out: CB1 Ki)	EC50 (human CB1 receptor [1]; [4])	Ki (human CB1 receptor [2]; CB1 Ki)
CC(C)(C)[C@H](NC(=O)c1nn(Cc2ccc(C#N)cc2F)c2c(F)c(F)ccc12)C(=O)NC1CC1 [Example 374]			12.5 nM	7.33 nM
CC(C)(C)[C@H](NC(=O)c1nn(Cc2ccc(C#N)cc2F)c2c(F)cccc12)C(=O)NCc1nnc(C(N)=O)o1 [Example 375]	31.4 nM	7.92 nM		
CC(C)(C)[C@H](NC(=O)c1nn(Cc2ccc(F)cc2)c2ccccc12)C(=O)NCC(=O)NCCO [Example 376]			4.4 nM	1.52 nM
CCOC(=O)[C@H]1C[C@@H](NC(=O)[C@@H](NC(=O)c2nn(Cc3ccc(F)cc3)c3ccccc23)C(C)(C)C)C1 [Example 381]	26.9 nM	15.3 nM		
CC(C)NS(=O)(=O)CCNC(=O)[C@@H](NC(=O)c1nn(Cc2ccc(F)cc2)c2ccccc12)C(C)(C)C [Example 395]	30.8 nM	41.2 nM		
CC(C)(C)[C@H](NC(=O)c1nn(Cc2ccc(F)cc2)c2ccccc12)C(=O)N[C@H]1C[C@@H](C(N)=O)C1 [Example 398]			26.6 nM	5.8 nM
CC(C)(C)[C@H](NC(=O)c1nn(Cc2ccc(F)cc2)c2ccccc12)C(=O)NCCS(=O)(=O)NCC1CC1 [Example 400]	28.1 nM	12.3 nM		
CC(C)(C)[C@H](NC(=O)c1nn(Cc2ccc(F)cc2)c2ccccc12)C(=O)NCC1CCC(=O)N1 (stereo partly shown) [Example 404]			38.2 nM	13.1 nM
CN1CC(CNC(=O)[C@@H](NC(=O)c2nn(Cc3ccc(F)cc3)c3ccccc23)C(C)(C)C)CC1=O (stereo partly shown) [Example 411]	21.3 nM	3.73 nM		
CC(C)(C)[C@H](NC(=O)c1nn(Cc2ccc(F)cc2)c2ccccc12)C(=O)NCc1n[nH]c(C2CC2)n1 [Example 413]	52 nM	14 nM		
CC(C)(C)[C@H](NC(=O)c1nn(Cc2ccc(F)cc2)c2ccccc12)C(=O)NCc1n[nH]c(-c2ccccc2)n1 [Example 414]	38.6 nM	7.61 nM		
CC(C)(C)[C@H](NC(=O)c1nn(Cc2ccc(F)cc2)c2ccccc12)C(=O)NCc1nc2n(n1)CCC2 [Example 415]	10.8 nM	8.69 nM		
Cn1nc(CNC(=O)[C@@H](NC(=O)c2nn(Cc3ccc(F)cc3)c3ccccc23)C(C)(C)C)cc1C1CCC1 [Example 416]	47.1 nM	9.26 nM		
CC(C)(C)[C@H](NC(=O)c1nn(Cc2ccc(F)cc2)c2ccccc12)C(=O)NCc1cnn2cccnc12 [Example 417]	25.7 nM	7.84 nM		
CC(C)(C)[C@H](NC(=O)c1nn(Cc2ccc(F)cc2)c2ccccc12)C(=O)NCc1nc(-c2cnccn2)no1 [Example 418]	4.07 nM	0.78 nM		
CC(C)(C)[C@H](NC(=O)c1nn(Cc2ccc(F)cc2)c2ccccc12)C(=O)NCc1cc(C2CCC2)[nH]n1 [Example 420]	43.7 nM	11.2 nM		
Cc1nc(CNC(=O)[C@@H](NC(=O)c2nn(Cc3ccc(F)cc3)c3ccccc23)C(C)(C)C)nn1C [Example 421]	17.2 nM	2.88 nM		
CC(C)(C)[C@H](NC(=O)c1nn(Cc2ccc(F)cc2)c2ccccc12)C(=O)NCc1cc(C2CC2)[nH]n1 [Example 422]	19.6 nM	4.67 nM		
Cn1cc(CNC(=O)[C@@H](NC(=O)c2nn(Cc3ccc(F)cc3)c3ccccc23)C(C)(C)C)cn1 [Example 423]			30.8 nM	5.19 nM
CC(C)(C)[C@H](NC(=O)c1nn(Cc2ccc(F)cc2)c2ccccc12)C(=O)NCc1nc(-c2ccccn2)no1 [Example 424]	10.2 nM	1.28 nM		
Cc1cc(CNC(=O)[C@@H](NC(=O)c2nn(Cc3ccc(F)cc3)c3ccccc23)C(C)(C)C)no1 [Example 425]			3.36 nM	0.92 nM
CC(C)(C)[C@H](NC(=O)c1nn(Cc2ccc(F)cc2)c2ccccc12)C(=O)NCc1cnn(-c2ccccc2)n1 [Example 427]	50.5 nM	15 nM		
CC(C)(C)[C@H](NC(=O)c1nn(Cc2ccc(F)cc2)c2ccc(Cl)cc12)C(=O)NCCS(N)(=O)=O [Example 432]			101 nM	15.7 nM
